From the supplement of paper PMC10883282

How the values were obtained:
Test in all cases: relative viability vs DMSO control (72 h) (fraction); higher = more viable cells
[1] = test system: RD-ES
Outline: (§1)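 Sarcoma cell lines were grown in 384-well plates seeded toward 80–90% confluence and exposed 24 h later to serially diluted compound. After 72 h at 37 °C and 5% CO2, with 0.1% DMSO vehicle and a 5 µM positive control on the plates, ATPLite was read. Relative viability, given as percent growth averaged over up to triplicate wells, was rescaled so that 1 is full and 0 is none.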

[2] = test system: HS729
Outline: as §1

[3] = test system: RD
Outline: as §1

[4] = test system: HT1080
Outline: as §1

[5] = test system: SW684
Outline: as §1

[6] = test system: SW1353
Outline: as §1

[7] = test system: KHOS-240S
Outline: as §1

[8] = test system: SYO-1
Outline: as §1

[9] = test system: KHOS-NP
Outline: as §1

[10] = test system: SW872
Outline: as §1

[11] = test system: SK-LMS-1
Outline: as §1

[12] = test system: G401
Outline: as §1

CO[C@H]1C[C@@H]2CC[C@@H](C)[C@@](O)(O2)C(=O)C(=O)N2CCCC[C@H]2C(=O)O[C@H]([C@H](C)C[C@@H]2CC[C@@H](OCCO)[C@H](OC)C2)CC(=O)[C@H](C)/C=C(\C)[C@@H](O)[C@@H](OC)C(=O)[C@H](C)C[C@H](C)/C=C/C=C/C=C/1C [Certican]
Conditions | relative viability
[1], 0.00017 µM | 0.967
[1], 0.00051 µM | 0.939
[1], 0.00152 µM | 0.843
[1], 0.00457 µM | 0.807
[1], 0.01372 µM | 0.772
[1], 0.04115 µM | 0.728
[1], 0.1235 µM | 0.676
[1], 0.3704 µM | 0.658
[1], 1.111 µM | 0.598
[1], 3.333 µM | 0.552
[1], 10 µM | 0.488
[2], 0.00017 µM | 0.907
[2], 0.00051 µM | 0.943
[2], 0.00152 µM | 0.896
[2], 0.00457 µM | 0.835
[2], 0.01372 µM | 0.903
[2], 0.04115 µM | 0.829
[2], 0.1235 µM | 0.828
[2], 0.3704 µM | 0.808
[2], 1.111 µM | 0.821
[2], 3.333 µM | 0.828
[2], 10 µM | 0.891
[3], 0.00017 µM | 1.09
[3], 0.00051 µM | 1.09
[3], 0.00152 µM | 0.964
[3], 0.00457 µM | 0.888
[3], 0.01372 µM | 0.848
[3], 0.04115 µM | 0.8231
[3], 0.1235 µM | 0.773
[3], 0.3704 µM | 0.7358
[3], 1.111 µM | 0.73
[3], 3.333 µM | 0.71
[3], 10 µM | 0.657
[4], 0.00017 µM | 1.04
[4], 0.00051 µM | 1.04
[4], 0.00152 µM | 1.09
[4], 0.00457 µM | 1.09
[4], 0.01372 µM | 1.08
[4], 0.04115 µM | 0.985
[4], 0.1235 µM | 0.998
[4], 0.3704 µM | 1.02
[4], 1.111 µM | 1.01
[4], 3.333 µM | 1.01
[4], 10 µM | 0.922
[5], 0.00017 µM | 1.08
[5], 0.00051 µM | 1.125
[5], 0.00152 µM | 1.069
[5], 0.00457 µM | 1.03
[5], 0.01372 µM | 0.914
[5], 0.04115 µM | 0.829
[5], 0.1235 µM | 0.844
[5], 0.3704 µM | 0.813
[5], 1.111 µM | 0.83
[5], 3.333 µM | 0.872
[5], 10 µM | 0.807
[6], 0.00017 µM | 0.915
[6], 0.00051 µM | 0.875
[6], 0.00152 µM | 0.855
[6], 0.00457 µM | 0.772
[6], 0.01372 µM | 0.76
[6], 0.04115 µM | 0.746
[6], 0.1235 µM | 0.708
[6], 0.3704 µM | 0.71
[6], 1.111 µM | 0.696
[6], 3.333 µM | 0.677
[6], 10 µM | 0.6966
[7], 0.00017 µM | 1.05
[7], 0.00051 µM | 1.01
[7], 0.00152 µM | 0.935
[7], 0.00457 µM | 0.889
[7], 0.01372 µM | 0.851
[7], 0.04115 µM | 0.845
[7], 0.1235 µM | 0.815
[7], 0.3704 µM | 0.786
[7], 1.111 µM | 0.784
[7], 3.333 µM | 0.75
[7], 10 µM | 0.717
[8], 0.00017 µM | 0.904
[8], 0.00051 µM | 0.876
[8], 0.00152 µM | 0.852
[8], 0.00457 µM | 0.84
[8], 0.01372 µM | 0.808
[8], 0.04115 µM | 0.788
[8], 0.1235 µM | 0.755
[8], 0.3704 µM | 0.755
[8], 1.111 µM | 0.729
[8], 3.333 µM | 0.738
[8], 10 µM | 0.742
[9], 0.00017 µM | 1.05
[9], 0.00051 µM | 1.07
[9], 0.00152 µM | 1.07
[9], 0.00457 µM | 1.05
[9], 0.01372 µM | 1.03
[9], 0.04115 µM | 1
[9], 0.1235 µM | 1.02
[9], 0.3704 µM | 1.04
[9], 1.111 µM | 1.03
[9], 3.333 µM | 1.02
[9], 10 µM | 0.824
[10], 0.00017 µM | 0.922
[10], 0.00051 µM | 0.774
[10], 0.00152 µM | 0.6659
[10], 0.00457 µM | 0.645
[10], 0.01372 µM | 0.611
[10], 0.04115 µM | 0.592
[10], 0.1235 µM | 0.574
[10], 0.3704 µM | 0.561
[10], 1.111 µM | 0.567
[10], 3.333 µM | 0.584
[10], 10 µM | 0.584
[11], 0.00017 µM | 1
[11], 0.00051 µM | 0.894
[11], 0.00152 µM | 0.759
[11], 0.00457 µM | 0.661
[11], 0.01372 µM | 0.631
[11], 0.04115 µM | 0.571
[11], 0.1235 µM | 0.549
[11], 0.3704 µM | 0.572
[11], 1.111 µM | 0.564
[11], 3.333 µM | 0.5489
[11], 10 µM | 0.512
[12], 0.00017 µM | 0.9112
[12], 0.00051 µM | 0.873
[12], 0.00152 µM | 0.846
[12], 0.00457 µM | 0.825
[12], 0.01372 µM | 0.784
[12], 0.04115 µM | 0.757
[12], 0.1235 µM | 0.729
[12], 0.3704 µM | 0.701
[12], 1.111 µM | 0.683
[12], 3.333 µM | 0.668
[12], 10 µM | 0.642

CC1(COc2ccc3c(c2)ncn3-c2ccc3cccc(N4CCC(N)CC4)c3n2)COC1 [Crenolanib]
Conditions | relative viability
[1], 0.00017 µM | 0.949
[1], 0.00051 µM | 0.958
[1], 0.00152 µM | 0.957
[1], 0.00457 µM | 0.975
[1], 0.01372 µM | 0.958
[1], 0.04115 µM | 0.969
[1], 0.1235 µM | 0.97
[1], 0.3704 µM | 0.994
[1], 1.111 µM | 0.915
[1], 3.333 µM | 0.359
[1], 10 µM | 0.255
[2], 0.00017 µM | 0.96
[2], 0.00051 µM | 0.973
[2], 0.00152 µM | 1.03
[2], 0.00457 µM | 0.992
[2], 0.01372 µM | 1.01
[2], 0.04115 µM | 0.98
[2], 0.1235 µM | 0.97
[2], 0.3704 µM | 1.01
[2], 1.111 µM | 1.034
[2], 3.333 µM | 0.983
[2], 10 µM | 0.901
[3], 0.00017 µM | 1.02
[3], 0.00051 µM | 1.05
[3], 0.00152 µM | 1.04
[3], 0.00457 µM | 1.05
[3], 0.01372 µM | 1.07
[3], 0.04115 µM | 1.05
[3], 0.1235 µM | 1.06
[3], 0.3704 µM | 1.1
[3], 1.111 µM | 1.11
[3], 3.333 µM | 0.955
[3], 10 µM | 0.02007
[4], 0.00017 µM | 1.01
[4], 0.00051 µM | 1.03
[4], 0.00152 µM | 1.04
[4], 0.00457 µM | 1.03
[4], 0.01372 µM | 1.02
[4], 0.04115 µM | 1.02
[4], 0.1235 µM | 1.02
[4], 0.3704 µM | 1.05
[4], 1.111 µM | 1.04
[4], 3.333 µM | 0.811
[4], 10 µM | 0.0545
[5], 0.00017 µM | 1.02
[5], 0.00051 µM | 1.05
[5], 0.00152 µM | 1.08
[5], 0.00457 µM | 1.04
[5], 0.01372 µM | 1.04
[5], 0.04115 µM | 1.05
[5], 0.1235 µM | 1.08
[5], 0.3704 µM | 1.1
[5], 1.111 µM | 1.15
[5], 3.333 µM | 0.978
[5], 10 µM | 0.423
[6], 0.00017 µM | 0.968
[6], 0.00051 µM | 0.959
[6], 0.00152 µM | 0.938
[6], 0.00457 µM | 0.97
[6], 0.01372 µM | 0.949
[6], 0.04115 µM | 0.917
[6], 0.1235 µM | 0.92
[6], 0.3704 µM | 0.84
[6], 1.111 µM | 0.813
[6], 3.333 µM | 0.683
[6], 10 µM | 0.009
[7], 0.00017 µM | 0.97
[7], 0.00051 µM | 0.957
[7], 0.00152 µM | 1.01
[7], 0.00457 µM | 1.02
[7], 0.01372 µM | 1.01
[7], 0.04115 µM | 1.023
[7], 0.1235 µM | 0.986
[7], 0.3704 µM | 0.963
[7], 1.111 µM | 0.844
[7], 3.333 µM | 0.476
[7], 10 µM | 0.134
[8], 0.00017 µM | 0.974
[8], 0.00051 µM | 0.983
[8], 0.00152 µM | 0.996
[8], 0.00457 µM | 0.998
[8], 0.01372 µM | 0.953
[8], 0.04115 µM | 0.867
[8], 0.1235 µM | 0.785
[8], 0.3704 µM | 0.787
[8], 1.111 µM | 0.659
[8], 3.333 µM | 0.307
[8], 10 µM | -0.023
[9], 0.00017 µM | 1.05
[9], 0.00051 µM | 1.03
[9], 0.00152 µM | 1.02
[9], 0.00457 µM | 1.05
[9], 0.01372 µM | 1.03
[9], 0.04115 µM | 1.01
[9], 0.1235 µM | 0.998
[9], 0.3704 µM | 0.946
[9], 1.111 µM | 0.765
[9], 3.333 µM | 0.605
[9], 10 µM | 0.511
[10], 0.00017 µM | 1.03
[10], 0.00051 µM | 1.01
[10], 0.00152 µM | 1.03
[10], 0.00457 µM | 1.06
[10], 0.01372 µM | 1.05
[10], 0.04115 µM | 1.02
[10], 0.1235 µM | 1.01
[10], 0.3704 µM | 0.988
[10], 1.111 µM | 0.95
[10], 3.333 µM | 0.786
[10], 10 µM | 0.0216
[11], 0.00017 µM | 0.98
[11], 0.00051 µM | 1.05
[11], 0.00152 µM | 1.036
[11], 0.00457 µM | 1.04
[11], 0.01372 µM | 1.03
[11], 0.04115 µM | 1.03
[11], 0.1235 µM | 1.07
[11], 0.3704 µM | 1.02
[11], 1.111 µM | 0.967
[11], 3.333 µM | 0.8
[11], 10 µM | 0.0424
[12], 0.00017 µM | 0.968
[12], 0.00051 µM | 0.935
[12], 0.00152 µM | 0.951
[12], 0.00457 µM | 0.942
[12], 0.01372 µM | 0.955
[12], 0.04115 µM | 0.981
[12], 0.1235 µM | 0.972
[12], 0.3704 µM | 0.99
[12], 1.111 µM | 0.95
[12], 3.333 µM | 0.934
[12], 10 µM | 0.0201
